{
  "source": "paper PMC8001000",
  "about": "“Pitfalls in the Immunochemical Determination of β-Lactam Antibiotics in Water” (Antibiotics, 2021)",
  "key": {"[1]": {"system": "monoclonal mouse anti-AMX antibody A1463 (clone 1.BB.832)", "test": "indirect competitive ELISA (calibration curves of β-lactams and hydrolysis products)", "type": "binding", "conditions": "for IC50: read-out: IC50 (ELISA calibration curve); for reduction of LOD by hydrolysis: after hydrolysis", "method": "For the preparation of standards (calibrators), stock solutions of each compound with a mass concentration of approximately 1 g/L were prepared gravimetrically by weighing the respective compound and amount of solvent. Solvents for these stock solutions were ethanol for amoxicillin piperazine-2,5-dione and 3-(4-hydroxyphenyl)pyrazin-2-ol, or Milli-Q water for all other compounds. Standard solutions of each compound were prepared volumetrically by serial dilution of the respective stock solution in Milli-Q water. All standards and stock solutions were stored at 4 °C in the amber glass vials.\n(§1) For hydrolysis, standards and samples were diluted in 0.1 M sodium hydroxide solution (1:1) the day before analysis in the assay, i.e., the day of coating (see below), and stored at 4 °C until the next day. Samples for reference analysis without hydrolysis were diluted in Milli-Q water (1:1) prior to analysis.\nEach cavity of a 96-well microplate was coated with AMX-HSA (or alternatively AMX-BSA) in PBS (47.619 ng/L, 200 µL/well) and incubated for 18 h at RT with shaking at 750 rpm. Afterwards the plate was washed three times with washing buffer (1:60 dilution of washing buffer 60x in Milli-Q water) and the cavities were blocked with 0.1% (w/v) casein in PBS (200 µL/well) for 1 h at 750 rpm and RT. After repeated washing, standards/samples (100 µL/well) and primary antibody (dilution 1:20,000 in Tris for preliminary and cross-reactivity studies, in sample buffer pH 7.6 for sample analysis or in sample buffer pH 8.5 for reference analysis for degree of hydrolysis; 100 µL/well) were added and incubated for 1 h at 750 rpm and RT. Following another washing step, the plate was incubated with secondary antibody (95.238 ng/L, 200 µL/well) for 1 h at 750 rpm at RT. After final washing, cavities were filled with freshly prepared substrate solution (22 mL citrate buffer, 8.5 µL hydrogen peroxide solution, 550 µL TMB stock solution; 200 µL/well) and shaken for 10 min (preliminary and cross-reactivity studies) or 20 min (sample analysis, degree of hydrolysis) at 750 rpm for blue color development. […] Optical density was read at RT at a wavelength of 450 nm with reference at 620 nm. Data points were plotted in Origin® 2019 (OriginLab, Northampton, MA, USA), calibration curves were obtained by fitting a four-parameter logistic function to the measured data points and sample concentrations were determined by correlating concentration values of hydrolyzed standards with O.D. values of hydrolyzed and non-hydrolyzed samples. Each standard (8 per plate) and sample (24 per plate) was analyzed in triplicate with random distribution across the plate to reduce edge effects."}, "[2]": {"test": "hydrolysis of AMX in standard solutions and water samples, followed by ELISA", "type": "physicochemical", "conditions": "for reaction time after which no further shift in the calibration curve was observable (hydrolysis): 0.1 M NaOH", "method": "While developing and optimizing an indirect competitive ELISA for the determination of AMX, we observed a significant shift in the calibration curves obtained for differently aged standard solutions (calibrators) of AMX in water. […] This shift reached its end point after two months of storage at 4 °C and could be ascribed to hydrolysis of the parent drug by hydrolyzing standard solutions of AMX in 0.1 M NaOH, which yielded a similar calibration curve in the ELISA (see Figure 2).\nIn order to examine the degree of hydrolysis of AMX in these samples, a parallel analysis in the ELISA without pretreatment with 0.1 M NaOH was carried out and concentration values determined with and without hydrolysis were compared. […] Because of the antibody’s lower affinity towards unhydrolyzed AMX (higher IC50), higher O.D. values are found which correlate with lower concentration values in the calibration curve. This was the case for all of the tested mineral waters after 20 h. Contrarily, for tap water samples (P1–P4) the analysis without hydrolysis led to higher concentration values than the assay featuring hydrolysis, implying that hydrolysis of AMX had already occurred in these samples. […] The reason for that may lie in general properties of tap water containing particles or metal ions, e.g., Cu^2+, which can serve as catalysts for AMX hydrolysis. Furthermore, the storage of the water samples might have an effect as tap water for sample preparation was collected and stored in a glass bottle whereas mineral water samples were taken directly from plastic bottles. Anyhow, the influence of the pH value of the water can be ruled out since the values were within a range from 6.6 to 8.0 and no general trend was observable. The same holds true for ionic constituents (see Supplementary Table S1).\nas §1"}, "[3]": {"conditions": "non-hydrolyzed standard solutions (freshly prepared / before hydrolysis; pure compounds)"}, "[4]": {"conditions": "standards after alkaline hydrolysis (0.1 M NaOH, 24 h at 4 °C)"}},
  "note": "Like-named read-outs stand apart in the source and are kept apart here.",
  "data": [
    {"smiles": "CC1(C)S[C@@H]2[C@H](NC(=O)[C@H](N)c3ccccc3)C(=O)N2[C@H]1C(=O)O", "note": "[AMP, ampicillin]", "values": [
      {"measurement": "IC50", "setting": "[1]; [3]", "value": "1350 ± 130", "unit": "nM"},
      {"measurement": "IC50", "setting": "[1]; [4]", "value": "36.2 ± 3.7", "unit": "nM"}
    ]},
    {"smiles": "CC1(C)S[C@@H]2[C@H](NC(=O)[C@H](N)c3ccc(O)cc3)C(=O)N2[C@H]1C(=O)O", "note": "[AMX, amoxicillin]", "values": [
      {"measurement": "IC50", "setting": "[1]; [3]", "value": "1470 ± 120", "unit": "nM"},
      {"measurement": "IC50", "setting": "[1]; standard solutions aged for 2 months at 4 °C in water", "value": "52.2 ± 4.4", "unit": "nM"},
      {"measurement": "IC50", "setting": "[1]; [4]", "value": "38.1 ± 3.6", "unit": "nM"},
      {"measurement": "reaction time after which no further shift in the calibration curve was observable (hydrolysis)", "setting": "[2]; pH 12.5, 4 °C", "value": 18, "unit": "h"},
      {"measurement": "reaction time after which no further shift in the calibration curve was observable (hydrolysis)", "setting": "[2]; pH 12.5, RT", "value": 3, "unit": "h"},
      {"measurement": "rate of hydrolysis in drinking water samples", "setting": "[2]; spiked tap water vs bottled mineral water, after 20 h", "value": "much faster in tap water than in bottled mineral water"},
      {"measurement": "storage time until shift of calibration curve reached its end point (hydrolysis)", "setting": "[2]; standard solutions in water, storage at 4 °C", "value": "two"}
    ]},
    {"smiles": "CC1(C)S[C@@H]2[C@H](NC(=O)C(C(=O)O)c3ccccc3)C(=O)N2[C@H]1C(=O)O", "note": "(some centres unmarked) [CRB, carbenicillin]", "values": [
      {"measurement": "IC50", "setting": "[1]; [3]", "value": "11 ± 0.4", "unit": "nM"},
      {"measurement": "IC50", "setting": "[1]; [4]", "value": "3.8 ± 0.5", "unit": "nM"}
    ]},
    {"smiles": "CC1(C)SC(C(NC(=O)[C@H](N)c2ccc(O)cc2)C(=O)O)NC1C(=O)O", "note": "(some centres unmarked) [HP1, amoxicilloic acid]", "values": [
      {"measurement": "fold higher affinity of the antibody than to the parent drug AMX", "setting": "[1]; HP1 vs AMX", "value": "approximately 200 fold"},
      {"measurement": "IC50", "setting": "[1]; [3]", "value": "7.48 ± 0.58", "unit": "nM"}
    ]},
    {"smiles": "CC1(C)SC(C2NC(=O)C(c3ccc(O)cc3)NC2=O)NC1C(=O)O", "note": "(centres unmarked) [HP2, amoxicillin piperazine-2,5-dione]", "values": [
      {"measurement": "IC50", "setting": "[1]; [3]", "value": 28700, "unit": "nM"}
    ]},
    {"smiles": "CC1(C)S[C@@H]2[C@H](NC(=O)Cc3ccccc3)C(=O)N2[C@H]1C(=O)O", "note": "[PenG, penicillin G]", "values": [
      {"measurement": "reduction of LOD by hydrolysis", "setting": "[1]", "value": 85, "unit": "%"},
      {"measurement": "IC50", "setting": "[1]; [3]", "value": "700 ± 70", "unit": "nM"},
      {"measurement": "IC50", "setting": "[1]; [4]", "value": "11.1 ± 1.7", "unit": "nM"}
    ]},
    {"smiles": "CC1(C)S[C@@H]2[C@H](NC(=O)COc3ccccc3)C(=O)N2[C@H]1C(=O)O", "note": "[PenV, penicillin V]", "values": [
      {"measurement": "reduction of LOD by hydrolysis", "setting": "[1]", "value": 85, "unit": "%"},
      {"measurement": "IC50", "setting": "[1]; [3]", "value": "702 ± 66", "unit": "nM"},
      {"measurement": "IC50", "setting": "[1]; [4]", "value": "11.6 ± 2.5", "unit": "nM"}
    ]}
  ]
}
